# Assay results reported in patent US20080176781A1, “Perfumes for linear citrus release in rinse-off systems” (priority 2007, published 2008).
# Assay: Odor detection threshold (ODT)
# Design: unit not given here
# From the text: Within these defined water-release groups, odorants are then further described based on their experimentally determined odor detection thresholds (ODT) to further characterize the odor impact or olfactive intensity of a citrus and other olfactive types within the herein-described released group of odorants.
# Upon their release in headspace, odorants are detected based on their odor detection threshold values. Odor detection thresholds are defined as the lowest concentration of odorants in a selected medium (air or water) to be detected. By including odor values of odorants in the model, one can further improve on the values for predicted performance of once odorants are released from the partition into the air.
# Various databases for experimental odor detection threshold values in various partitions such as water and air are available. See Compilation of Odor and Taste Threshold Values Data, American Society for Testing and Materials, F. A. Fazzalari Editor; Booleans Aroma Chemical Information Service (BACIS)).
SMILES,odt (Table 17),odt (Table 15),odt (Table 13)
C=CC(C)(O)CCC=C(C)CC (mixture of isomers) [ETHYL LINALOOL],120,–,–
"CCCCCCCCCC=O [ALDEHYDE C10 (DECANAL), DECANAL]",–,6.7,–
"CCCCCCCC=O [ALDEHYDE C 8 (OCTANAL), OCTANAL]",4.6,4.6,–
C=CCOC(=O)CCC1CCCCC1 [ALLYL CYCLOHEXYL PROPIONATE],–,–,31.00
CC/C=C\CCOC(=O)c1ccccc1O [CIS-3-HEXENYL SALICYLATE],–,–,1.90
CCCCCCCCCCCC#N [LAURONITRILE],–,–,5.70
CCCCCCC#CC(=O)OC [METHYL OCTINE CARBONATE],9.7,–,–
CCCCCCCCCCC=CC#N [TRIDECEN 2 NITRILE],–,6.7,–
"CCC=C(C)C(O)CCCCC (centres unmarked) [UNDECAVERTOL, 4-Methyl-3-decen-5-ol]",26,26,–
